≈ marks a conversion by molar mass, not a printed value. Entries after “also recorded” stand apart in the source; their conditions may differ.
Columns and labels:
[1] = test system: Mycobacterium tuberculosis H37Ra; assay: In vitro anti-mycobacterial activity against M. tuberculosis; type: cell-based; conditions: for IC50 / IC90: Mycobacterium tuberculosis, M. tuberculosis H37Ra; for IC50 / IC90 / Inhibition of / anti-tubercular activity against Mycobacterium tuberculosis (in words): in vitro
Protocol: All the isolated compounds and whole acetone extract were tested for their in vitro effect against Mycobacterium tuberculosis H37Ra.

Mycobacterium smegmatis = assay: Specificity test against M. smegmatis (XTT reduction microplate assay); type: cell-based
Escherichia coli = assay: Specificity test against E. coli (growth, absorbance at 620 nm); type: cell-based
[2] = test system: prostaglandin-induced contractions; conditions: cited from earlier work
M. tuberculosis H37Rv = conditions: cited from earlier work

C=C[C@](C)(O)CC[C@@H]1[C@@]2(C)CCCC(C)(C)[C@H]2CC[C@@]1(C)O [Compound 4]
IC50 [1]: 5.95 µg/mL (≈ 19.3 µM)
IC90 [1]: 10.8 µg/mL (≈ 35.2 µM)
Inhibition of / anti-tubercular activity against Mycobacterium tuberculosis (in words) [1]: potent anti-tubercular activity; also recorded: significant inhibition; also recorded: effective

C[C@@H]1CC[C@H]2C(C)(C)CCC[C@]2(C)[C@@]1(O)CC/C(=C/CO)CO [Compound 3]
Percent inhibition, M. smegmatis (Mycobacterium smegmatis; tested at IC90 found against M. tuberculosis, mean ± S.D. of three experiments): 30.57 ± 3.58%
Percent inhibition, E. coli (Escherichia coli; tested at IC90 found against M. tuberculosis, 6 h incubation, mean ± S.D. of three experiments): 11.47 ± 1.65%
IC50 [1]: 9.8 µg/mL (≈ 30.2 µM)
IC90 [1]: 46.5 µg/mL (≈ 143 µM)
Inhibition of / anti-tubercular activity against Mycobacterium tuberculosis (in words) [1]: significant inhibition; also recorded: effective
Specificity / selectivity for M. tuberculosis (in words) ([1]; versus E. coli and M. smegmatis): specifically active; also recorded: selective inhibitors

CO[C@H]1/C=C/O[C@@]2(C)Oc3c(C)c(O)c4c(O)c(c(/C=N/N5CCN(C)CC5)c(O)c4c3C2=O)NC(=O)/C(C)=C\C=C\[C@H](C)[C@H](O)[C@@H](C)[C@@H](O)[C@@H](C)[C@H](OC(C)=O)[C@@H]1C [Rifampicin, reference compound]
IC90 (Mycobacterium smegmatis; Mycolicibacterium smegmatis, reference drug, value is IC90, not percent inhibition): 0.2 ± 0.03 µg/mL (≈ 0.243 µM)
IC90 (Escherichia coli; Escherichia coli, reference drug, value is IC90, not percent inhibition): 0.5 ± 0.04 µg/mL (≈ 0.608 µM)

C=C[C@]1(C)C=C2C(=O)C[C@H]3C(C)(C)[C@@H](O[C@@H]4O[C@H](CO)[C@@H](O)[C@H](O)[C@H]4O[C@@H]4O[C@H](CO[C@@H]5O[C@H](CO)[C@@H](O)[C@H](O)[C@H]5O)[C@@H](O)[C@H](O)[C@H]4O)CC[C@]3(C)[C@H]2CC1 [leucasperosides A, leucasperoside A]
Inhibition of prostaglandin-induced contractions (in words) [2]: showed inhibition

leucasperone A
Inhibition of prostaglandin-induced contractions (in words) [2]: showed inhibition

NNC(=O)c1ccncc1 [Isoniazid, reference compound]
IC90 [1]: 0.05 ± 0.003 µg/mL (≈ 0.365 µM)

C=CC(=C)CCC1C(=C)CC[C@H]2[C@@](C)(C(=O)O)[C@H](OC(C)=O)CC[C@]12C (some centres unmarked) [juniperexcelsic acid]
MIC (M. tuberculosis H37Rv): 14.4 µg/mL (≈ 39.9 µM)

C=C[C@]1(C)C=C2C(=O)C[C@H]3C(C)(C)[C@@H](O[C@@H]4O[C@H](CO)[C@@H](O)[C@H](O)[C@H]4O[C@@H]4O[C@H](CO)[C@@H](O)[C@H](O)[C@H]4O)CC[C@]3(C)[C@H]2CC1 [leucasperosides B, leucasperoside B]
Inhibition of prostaglandin-induced contractions (in words) [2]: showed inhibition

linifolioside
Inhibition of prostaglandin-induced contractions (in words) [2]: showed inhibition
